Source: patent US12336986B2, “Treatment and prevention of ocular neurodegenerative disorder” (The Jackson Laboratory, priority 2015, dated 2025)
Entries after “also recorded” stand apart in the source; their conditions may differ.

Key:
DBA/2J (D2) mice [1] = experiment: Pattern electroretinography (PERG) in D2 mice; assay type: in vivo, mouse; details: for visual function, PERG amplitude: D2 mice
Procedure: PERG was recorded subcutaneously from the snout as previously reported. Briefly: patterned stimuli (gratings of 0.05 cycles/degree, 100% contrast) generated on LED panels were presented at each eye separately with slight different frequencies around 1 Hz. Waveforms were retrieved using an asynchronous averaging method (Chou et al., Invest Ophthalmol Vis Sci 55, 2469-2475, 2014).
Mice were anaesthetized using ketamine/xylazine (Savinova et al., BMC Genet 2, 12, 2001) and body temperature maintained at 37° C. on a feedback-controlled heated stage monitored by rectal thermometer.

C57BL/6J (B6) mice = experiment: Soluble murine TNFα intravitreal injection model of RGC death; assay type: in vivo, mouse; details: NAM 550 mg/kg/day, 12-week post-TNFα administration
Procedure: To induce delayed retinal ganglion cell degeneration, soluble murine TNFα (1 ng/μL) was intravitrally injected as previously described (Nakazawa et al., J Neurosci 26, 12633-12641, 2006). […] Mice we sacrificed at 12-week and RGC counts performed.

[2] = system: dendritic mitochondria of D2 RGCs; experiment: Electron microscopy of RGC dendritic mitochondria (cristae); assay type: in vivo, mouse; details: D2 mice, NAM 550 mg/kg/day
Procedure: Mice were euthanized, eyes enucleated, and then fixed ON in Smith-Ruda (0.8% PFA and 1.2% gluteraldehyde in 0.1 M phosphate buffer). The cornea and lens were dissected off and the remaining posterior eye-cup (containing the retina and ONH) were post-fixed in 2% aqueous osmium tetroxide and dehydrated in ethyl alcohol. Samples were then infiltrated and flat-mounted in Embed 812/Araldite resin (Electron Microscopy Sciences) to allow en face sections. Blocks were polymerized at 60° C. for 48 hrs and 90 nm microtome sections were cut (Leica UC6, Leica) onto 300 mesh copper grids. Grids were stained with 1% aqueous uranyl acetate/Reynold's lead citrate and were viewed on a JEOL JEM 1230 TEM. Images were collected on an AMT 2K camera.

[3] = system: mouse model for EAE, ALS, RRMS; details: US 2006-0211744 A1, RRMS mouse models; cited from earlier work
D2 retinas [4] = experiment: Metabolic phenotyping of retina: total NAD, NAD(t) (NAD+/NADH); assay type: in vivo, mouse
Procedure: We performed additional metabolic profiling of neural retinas from 4-, 9-, and 12-months old D2 and D2-Gpnmb^+ eyes. Metabolic profiling was performed using targeted assays following the manufacturers recommendations. The following metabolites were profiled: NAD+/NADH (i.e. total NAD, NAD(t)), GSH/GSSG (i.e. total glutathione, glutathione(t)), and pyruvate.
For GSH/GSSO and NAD^+/NADH quantification retinas were dissociated (as above) and compounds measured following the manufacturer's instructions (GSH/GSSG, Cayman Chemical; NAD^+/NADH, Biovision). Results were calculated according to the standard curve generated by using standards from the kits. Final metabolite concentrations for each samples were normalized to total protein concentration measured by Bradford assay.

DBA/2J (D2) mice [5] = experiment: Optic nerve assessment (PPD staining) and determination of glaucomatous damage in D2 mice; assay type: in vivo, mouse; details: for risk factor of developing glaucoma (nerves with severe glaucoma): D2 mice at 12 months, control 0.6
Source text: This diet has no effects on the ocular health of the mice.
PPD stains the myelin sheath of all axons but darkly stains the axoplasm of only damaged axons.
Briefly, intracranial portions of optic nerves were fixed in 4% PFA at RT for 48 hrs, processed and embedded in plastic. A segment of optic nerve from within a region up to 1 mm from the posterior surface of the sclera was sectioned (1 μm thick sections) and stained with PPD. Typically 30-50 sections are taken from each nerve.
Multiple sections of each nerve were considered when determining damage level. Optic nerves were analyzed and determined to have one of 3 damage levels: • (1) No or early damage (NOE) less than 5% axons damaged and no gliosis. This level of damage is seen in age and sex matched non-glaucomatous mice and is not due to glaucoma.

D2 retinas [6] = experiment: Lipid droplet formation in inner retina (Oil Red O staining); assay type: in vivo, mouse; details: D2 mice, 12-month, NAM 550 mg/kg/day
Procedure: For Oil Red O staining, slides were warmed to room temperature, washed quickly in 60% isopropanol, incubated at RT in Oil Red O and Haematoxylin for 15 mins, washed in 60% isopropanol again, mounted and coverslipped. Oil Red O stained retinal sections were imaged using a Nikon Eclipse […].

[7] = system: retinal ganglion cells (RGCs); experiment: RGC soma loss (RBPMS staining) in D2 glaucoma; assay type: in vivo, mouse; details: D2 mice; NAM 550 mg/kg/day or pyruvate 500 mg/kg/day
Procedure: (§1) For immunofluorescence staining, mice were euthanized by cervical dislocation, their eyes enucleated and placed in 4% PFA ON. Retinas were dissected and flat-mounted onto slides, permeabilized with 0.1% Triton-X for 15 mins, blocked with 2% BSA in PBS and stained ON at RT in primary antibody (see below for list of antibodies).
(§2) After primary antibody incubation, retinas were washed 5 times in PBS, stained for 4 hrs at RT with secondary antibody. Slides were then washed a further 5 times with PBS, stained with DAPI for 15 mins, mounted with fluoromount, coverslipped and sealed with nail-polish.
(§3) For retinal sections, eyes were cryoprotected in 30% sucrose ON, frozen in OCT and cryosectioned at 18 μm. Slides were warmed to room temperature and the procedure above was followed. Retinas were imaged on a Zeiss AxioObserver for low resolution counts. Retinal sections were imaged on a Leica SP8 far higher resolution images.

DBA/2J (D2) mice [8] = experiment: Clinical phenotyping: intraocular pressure (IOP) and iris disease in D2 mice; assay type: in vivo, mouse
Procedure: IOP elevation in D2 mice is subsequent to a pigment dispersing iris disease. In all experiments, the progression of the iris disease and intraocular pressure in mutant or drug-treated mice was compared to control D2 mice as previously described (John et al., Invest Ophthalmol Vis Sci 39, 951-962, 1998). In each experiment, iris disease and intraocular pressure were assessed.
Iris disease was assessed at two-month intervals starting at 6 months of age until experiment completion.
Intraocular pressure was measured at 45-day intervals beginning at 8.5-9 month until experiment completion.

PARP = PARP activation (pan-PARP immunostaining) in D2 retinas; assay type: in vivo, mouse; details: NAM 550 mg/kg/day
Procedure: as §1, §2, §3

D2 retinas [9] = experiment: Retinal NFL and IPL thinning (Nissl staining) in D2 mice; assay type: in vivo, mouse; details: NAM or pyruvate in drinking water
Procedure: For Nissl staining, frozen sections were warmed to room temperature, placed in 1:1 alcohol:chloroform ON, and rehydrated through serial alcohol gradient. Slides were washed once in distilled water and stained for 15 mins in 0.1% cresyl violet in distilled water before being differentiated in 95% alcohol, dehydrated in 100% alcohol and cleared in xylene. Slides were prepared as above. Nissl stained retinal sections were imaged using a Nikon Eclipse E200.

Question: For `NC(=O)c1cccnc1` [NAM, nicotinamide], which PERG amplitude (DBA/2J (D2) mice [1]; D2 Wld^S mice, NAM 550 mg/kg/day) is on record?
Answer: additional recovery of PERG amplitude

Question: And the “visual function, PERG amplitude” value (DBA/2J (D2) mice [1]; NAM^Hi 2,000 mg/kg/day)?
Answer: protect

Question: What about the “visual function, PERG amplitude” value (DBA/2J (D2) mice [1]; NAM^Lo 550 mg/kg/day or pyruvate 500 mg/kg/day) of the same molecule?
Answer: restored; also recorded: protect PERG even in aged mice

Question: And the “loss of PERG amplitude in TNFα injected eyes” value (C57BL/6J (B6) mice)?
Answer: protected against; also recorded: prevents

Question: What about the “soma loss / cell loss in TNFα injected eyes” value (C57BL/6J (B6) mice) of the same molecule?
Answer: protected against; also recorded: prevents

Question: And the “mitochondrial dysfunction / abnormal cristae in dendritic mitochondria (EM)” value [2]?
Answer: sufficient to inhibit the formation of dysfunctional mitochondria; also recorded: prevents early mitochondrial dysfunction

Question: What about the neural degeneration [3] of the same molecule?
Answer: reduces neural degeneration

Question: And the “NAD(t) levels in retina” value (D2 retinas [4]; D2 Wld^S mice treated with NAM 550 mg/kg/day)?
Answer: synergistic; also recorded: additional benefit

Question: And the “NAD(t) levels in retina” value (D2 retinas [4]; D2 mice, NAM 550 mg/kg/day in drinking water, through to 12-month)?
Answer: prevented the decline of NAD levels; also recorded: restored; also recorded: increased

Question: And the “risk factor of developing glaucoma (nerves with severe glaucoma)” value (DBA/2J (D2) mice [5]; high dose NAM 2,000 mg/kg/day)?
Answer: 0.06

Question: And the “risk factor of developing glaucoma (nerves with severe glaucoma)” value (DBA/2J (D2) mice [5]; low dose NAM 550 mg/kg/day)?
Answer: 0.36

Question: And the “protection against glaucoma compared to Wld^S alone” value (DBA/2J (D2) mice [5]; D2 mice bearing the Wld^S mutation, NAM 550 mg/kg/day)?
Answer: better protects against glaucoma than Wld^S alone; also recorded: significantly better than Wld^S alone

Question: What about the “protection from glaucomatous damage (no glaucoma)” value (DBA/2J (D2) mice [5]; D2 mice carrying the Wld^S mutation, NAM 550 mg/kg/day from 6 months) of the same molecule?
Answer: ~95%

Question: What about the “treated eyes having no glaucomatous optic nerve damage” value (DBA/2J (D2) mice [5]; D2 mice, NAM 2000 mg/kg/d (NAM^Hi), 12 months of age) of the same molecule?
Answer: 93%

Question: What about the protective in glaucoma (DBA/2J (D2) mice [5]; D2 mice, NAM alone (550 mg/kg/day)) of the same molecule?
Answer: about 70%

Question: What about the “decrease in risk factor of developing glaucoma” value (DBA/2J (D2) mice [5]; D2 mice, high dose NAM 2,000 mg/kg/day) of the same molecule?
Answer: 10 fold

Question: And the “drop in risk factor” value (DBA/2J (D2) mice [5]; D2 mice, low dose NAM 550 mg/kg/day)?
Answer: ~2 fold

Question: And the “lipid droplet formation in the inner retina” value (D2 retinas [6])?
Answer: prevented; also recorded: prevents lipid droplet formation

Question: What about the “RGC soma loss (RBPMS)” value [7] of the same molecule?
Answer: prevented; also recorded: protects from RGC soma loss; also recorded: prevent RGC soma loss

Question: What about the IOP (DBA/2J (D2) mice [8]; NAM 550 mg/kg/d) of the same molecule?
Answer: did not alter IOP; also recorded: IOP was not altered

Question: What about the “degree of IOP elevation” value (DBA/2J (D2) mice [8]; NAM 2000 mg/kg/d) of the same molecule?
Answer: lessens the degree of IOP elevation

Question: What about the “PARP activation / expression” value (PARP) of the same molecule?
Answer: decreased PARP activation; also recorded: prevents PARP activation

Question: And the “retinal NFL and IPL thinning (Nissl)” value (D2 retinas [9])?
Answer: prevented; also recorded: protects
